Tested on: U. maydis wildtype strains
Assay: Growth-assay of U. maydis strains in 384 well MTPs (FIG. 3A, absorbance at OD620)
Format: cell-based, Ustilago maydis
Conditions: Hygromycin B 200 μg/ml, initial OD620 0,18, 1x minimal medium with 0,1% Kelzan, 30° C.
Description: FIG. 3 illustrates growth-assay of U. maydis strains in 384 well MTPs. • A: The kinetik of the absorbance at OD620 for U. maydis wildtype strains was determined in a 384 well MTP using a Tecan ultra reader (rombus). As control served a strain, to which Hygromycin B was added in a concentration of 200 μg/ml (crosses). The initial OD620 for both strains was 0,18. […] GFP fluorescence of a U. maydis strain, in which GFP expression is controlled by the strong constitutive OMA promoter (squares), was determined in a Tecan plus reader. The excitation wavelength was 485 nm, the emission wavelength was 535 nm. […] Compared to lower temperatures, the increase in OD620 and the increase in fluorescence was faster. Experimental procedures: U. maydis strains where treated as described before in the Examples. The solution contained 1×minimal medium, 0,1% Kelzan and the assay was performed at 30° C. All experiments where repeated in independent duplicates.

CN[C@H]1C[C@@H](N)[C@H](O)[C@@H](O[C@@H]2O[C@H](CO)[C@H](O)[C@@H]3OC4(O[C@H]23)O[C@H]([C@@H](N)CO)[C@H](O)[C@H](O)[C@H]4O)[C@@H]1O (stereo partly shown) [Hygromycin B]
course of optical density (OD620) over time: continuous decrease in optical density
